Tests used:
A549 = assay: Cytotoxicity against human A549 cells assessed as cell growth inhibition after 48 hrs by MTT assay; type: functional, cell-based; details: A549, 48 h
HCT-116 = assay: Cytotoxicity against human HCT-116 cells assessed as cell growth inhibition after 48 hrs by MTT assay; type: functional, cell-based; details: HCT-116, 48 h
PC-3 = assay: Cytotoxicity against human PC-3 cells assessed as cell growth inhibition after 48 hrs by MTT assay; type: functional, cell-based; details: PC-3, 48 h
RT-112 = assay: Cytotoxicity against human RT-112 cells assessed as cell growth inhibition after 48 hrs by MTT assay; type: functional, cell-based; details: RT-112, 48 h
[1] = Antiangiogenic activity in endothelial cells assessed as inhibition of tube formation incubated for 18 hrs by matrigel-based inverted microscopic analysis; type: functional; details: Endothelial cell

SMILES | IC50 (A549) [µM] | IC50 (HCT-116) [µM] | IC50 (PC-3) [µM] | IC50 (RT-112) [µM] | IC50 [1] [µM]
CC(=O)O[C@H]1CC(C)(C)C[C@H]2C3=CC[C@@H]4[C@@]5(C)CC[C@H](O[C@@H]6OC[C@H](O[C@@H]7O[C@H](CO)[C@@H](O)[C@H](O)[C@H]7O[C@@H]7OC[C@@H](O)[C@H](O)[C@H]7O)[C@H](O)[C@H]6O[C@@H]6O[C@H](CO)[C@@H](O)[C@H](O)[C@H]6O)C(C)(C)[C@@H]5CC[C@@]4(C)[C@]3(C)[C@@H](O)[C@@H](O)[C@@]12CO | 6.1 | 7.7 | 9.4 | 6.4 | 1.7
CC(=O)OC[C@@]12[C@H](O)[C@H](O)[C@]3(C)C(=CC[C@@H]4[C@@]5(C)CC[C@H](O[C@@H]6OC[C@H](O[C@@H]7O[C@H](CO)[C@@H](O)[C@H](O)[C@H]7O[C@@H]7OC[C@@H](O)[C@H](O)[C@H]7O)[C@H](O)[C@H]6O[C@@H]6O[C@H](CO)[C@@H](O)[C@H](O)[C@H]6O)C(C)(C)[C@@H]5CC[C@]43C)[C@@H]1CC(C)(C)[C@@H](OC(C)=O)[C@@H]2O | > 10 | > 10 | > 10 | > 10 | 15.9
CC(=O)OC[C@@]12[C@H](O)[C@H](O)[C@]3(C)C(=CC[C@@H]4[C@@]5(C)CC[C@H](O[C@@H]6OC[C@H](O[C@@H]7O[C@H](CO)[C@@H](O)[C@H](O)[C@H]7O[C@@H]7OC[C@@H](O)[C@H](O)[C@H]7O)[C@H](O)[C@H]6O[C@@H]6O[C@H](CO)[C@@H](O)[C@H](O)[C@H]6O)C(C)(C)[C@@H]5CC[C@]43C)[C@@H]1CC(C)(C)C[C@@H]2O | > 10 | 9.8 | > 10 | 7.8 | 35.8
COc1ccc(/C=C\c2cc(OC)c(OC)c(OC)c2)cc1O [COMBRETASTATIN A4] | – | – | – | – | 0.37
CC(=O)O[C@@H]1C[C@]2(C)C(=CC[C@@H]3[C@@]4(C)CC[C@H](O[C@@H]5OC[C@H](O[C@@H]6O[C@H](CO)[C@@H](O)[C@H](O)[C@H]6O[C@@H]6OC[C@@H](O)[C@H](O)[C@H]6O)[C@H](O)[C@H]5O[C@@H]5O[C@H](CO)[C@@H](O)[C@H](O)[C@H]5O)C(C)(C)[C@@H]4CC[C@]32C)[C@@H]2CC(C)(C)C[C@H](O)[C@]12CO | > 10 | > 10 | > 10 | > 10 | 23.1
CC(=O)O[C@H]1[C@H](OC(C)=O)[C@]2(CO)[C@H](O)[C@H](O)[C@]3(C)C(=CC[C@@H]4[C@@]5(C)CC[C@H](O[C@@H]6OC[C@H](O[C@@H]7O[C@H](CO)[C@@H](O)[C@H](O)[C@H]7O[C@@H]7OC[C@@H](O)[C@H](O)[C@H]7O)[C@H](O)[C@H]6O[C@@H]6O[C@H](CO)[C@@H](O)[C@H](O)[C@H]6O)C(C)(C)[C@@H]5CC[C@]43C)[C@@H]2CC1(C)C | 8.7 | > 10 | > 10 | 7.3 | 3.2
CC(=O)O[C@@H]1[C@H](O)[C@]2(C)C(=CC[C@@H]3[C@@]4(C)CC[C@H](O[C@@H]5OC[C@H](O[C@@H]6O[C@H](CO)[C@@H](O)[C@H](O)[C@H]6O[C@@H]6OC[C@@H](O)[C@H](O)[C@H]6O)[C@H](O)[C@H]5O[C@@H]5O[C@H](CO)[C@@H](O)[C@H](O)[C@H]5O)C(C)(C)[C@@H]4CC[C@]32C)[C@@H]2CC(C)(C)C[C@H](O)[C@]12CO | > 10 | > 10 | > 10 | > 10 | 5.1
CC(=O)O[C@H]1C(=O)[C@@]2(C)[C@H]([C@H](OC(=O)c3ccccc3)[C@]3(O)C[C@H](OC(=O)[C@H](O)[C@@H](NC(=O)c4ccccc4)c4ccccc4)C(C)=C1C3(C)C)[C@]1(OC(C)=O)CO[C@@H]1C[C@@H]2O [PACLITAXEL] | 0.7 | – | 0.04 | 0.07 | –
CC(=O)OC[C@@]12[C@H](O)C[C@]3(C)C(=CC[C@@H]4[C@@]5(C)CC[C@H](O[C@@H]6OC[C@H](O[C@@H]7O[C@H](CO)[C@@H](O)[C@H](O)[C@H]7O[C@@H]7OC[C@@H](O)[C@H](O)[C@H]7O)[C@H](O)[C@H]6O[C@@H]6O[C@H](CO)[C@@H](O)[C@H](O)[C@H]6O)C(C)(C)[C@@H]5CC[C@]43C)[C@@H]1CC(C)(C)[C@@H](OC(C)=O)[C@@H]2O | 9 | 6.8 | 9.9 | > 10 | 5.2
CC1(C)C[C@H](O)[C@]2(CO)[C@H](O)[C@H](O)[C@]3(C)C(=CC[C@@H]4[C@@]5(C)CC[C@H](O[C@@H]6OC[C@H](O[C@@H]7O[C@H](CO)[C@@H](O)[C@H](O)[C@H]7O[C@@H]7OC[C@@H](O)[C@H](O)[C@H]7O)[C@H](O)[C@H]6O[C@@H]6O[C@H](CO)[C@@H](O)[C@H](O)[C@H]6O)C(C)(C)[C@@H]5CC[C@]43C)[C@@H]2C1 | > 10 | > 10 | > 10 | > 10 | 45.9

— ChEMBL document CHEMBL4811223, “Arenarosides A-G, Polyhydroxylated Oleanane-Type Saponins from Polycarpaea arenaria and their Cytotoxic and Antiangiogenic Activities” (J Nat Prod, 2021)
